Measured values as given in patent US12653801B2, “Digestive lipase activity inhibitor, blood triglyceride concentration increase inhibitor, and fat absorption inhibitor” (Pharma Foods International Co., Ltd., priority 2020, dated 2026).
One block for each compound: values may come before it.

Legend:
[1] = system: digestive lipase solution (mixture of pancreatic lipase, intestinal lipase, and the like) from rat intestinal acetone powder; test: Test 1: digestive lipase activity inhibition test with linoleic acid and oleic acid (Lipase Kit S, absorbance 412 nm); assay type: biochemical; settings: DMSO solution
Procedure: 30 mL of 0.1 M citrate buffer solution (pH 6.0) was added to 30 mg of rat intestinal acetone powder (manufactured by SIGMA Corporation), shaken in ice for 1 hour, and centrifuged at 4° C. and 10,000 rpm for 45 minutes, to obtain a digestive lipase solution. The digestive lipase solution is a mixture of pancreatic lipase, intestinal lipase, and the like. […] After that, 25 μL of the substrate solution was added, and the reaction was carried out at 30° C. for 30 minutes in the dark. After that, 700 μL of a reaction stop solution was added, and the absorbance at 412 nm was measured for this solution. As the coloring solution, the substrate solution, the esterase inhibitor, and the reaction stop solution, those attached to Lipase Kit S (manufactured by SB Bioscience Co., Ltd.) were used. A control was prepared in a new 1.5 mL capacity tube for the purpose of measuring the absorbance of the above samples and reagents themselves. […] After that, 700 μL of reaction stop solution and 25 μL of substrate solution were added, and the absorbance at 412 nm was measured. In addition, blank a was prepared in the same manner as in the activity evaluation except that only DMSO was added instead of the DMSO solution of each sample, and blank b was prepared in the same manner as the control by adding only DMSO (control blank). Absorbance at 412 nm was also measured for blank a and blank b. Digestive lipase activity when each sample was added was calculated by the following equation. Digestive lipase activity (%)=100×(absorbance of each sample−absorbance of control)/(absorbance of blank a−absorbance of blank b) (Results)

[2] = system: digestive lipase solution (mixture of pancreatic lipase, intestinal lipase, and the like) from rat intestinal acetone powder; test: Test 2: digestive lipase activity inhibition test with mixture of linoleic acid and oleic acid; assay type: biochemical; settings: 0.009 mg/mL linoleic acid aqueous solution, final concentration
Procedure: A control was prepared in a new 1.5 mL capacity tube for the purpose of measuring the absorbance of the above samples and reagents themselves. […] After that, 700 μL of reaction stop solution and 25 μL of substrate solution were added, and the absorbance at 412 nm was measured. […] Absorbance at 412 nm was also measured for blank a and blank b.
First, the digestive lipase activity inhibition rate of each sample was calculated according to the equation shown below.

SMILES: c1cc2c(cc1[C@H]1OC[C@H]3[C@@H]1CO[C@@H]3c1ccc3c(c1)OCO3)OCO2 [sesamin, reference compound]
Digestive lipase activity ([1]; 0.044 mg/mL final concentration, for comparison): 110.9%

Digestive lipase activity inhibition rate [2]: 9.6% | Digestive lipase activity ([1]; 0.19 mg/mL final concentration, 30° C. 30 minutes): 8.9%
SMILES: CCCCC/C=C\C/C=C\CCCCCCCC(=O)O [linoleic acid]

Digestive lipase activity ([1]; 0.16 mg/mL final concentration, 30° C. 30 minutes): 7.1%
SMILES: CCCCCCCC/C=C\CCCCCCCC(=O)O [oleic acid]
